Reference: ChEMBL document CHEMBL5385861, “Development of novel hydrazidoarylaminopyrimidine-based BTK/FLT3 dual inhibitors with potent in vivo anti-hematological malignancies effects” (Eur J Med Chem, 2023)
Calls of active or inactive are those of the source. The rule behind the calls is not given here.

Legend:
[1] = molecular target: T1, Tyrosine-protein kinase BTK (Homo sapiens, UniProt Q06187); test: Inhibition of BTK (unknown origin) incubated for 40 mins by radiometric kinase assay
[2] = molecular target: Cytoplasmic tyrosine-protein kinase BMX (Homo sapiens) (UniProt P51813); test: Inhibition of BMX (unknown origin) at 0.2 uM incubated for 40 mins by radiometric kinase assay relative to control
[3] = molecular target: CDK6/cyclin D3 (Homo sapiens) (UniProt P30281+Q00534); test: Inhibition of CDK6/cyclinD3 (unknown origin) at 0.2 uM incubated for 40 mins by radiometric kinase assay relative to control; type: protein-complex assay
[4] = molecular target: Tyrosine-protein kinase CSK (Homo sapiens) (UniProt P41240); test: Inhibition of CSK (unknown origin) at 0.2 uM incubated for 40 mins by radiometric kinase assay relative to control
Sequence of Tyrosine-protein kinase CSK (Homo sapiens) (P41240 2-450 limits assumed): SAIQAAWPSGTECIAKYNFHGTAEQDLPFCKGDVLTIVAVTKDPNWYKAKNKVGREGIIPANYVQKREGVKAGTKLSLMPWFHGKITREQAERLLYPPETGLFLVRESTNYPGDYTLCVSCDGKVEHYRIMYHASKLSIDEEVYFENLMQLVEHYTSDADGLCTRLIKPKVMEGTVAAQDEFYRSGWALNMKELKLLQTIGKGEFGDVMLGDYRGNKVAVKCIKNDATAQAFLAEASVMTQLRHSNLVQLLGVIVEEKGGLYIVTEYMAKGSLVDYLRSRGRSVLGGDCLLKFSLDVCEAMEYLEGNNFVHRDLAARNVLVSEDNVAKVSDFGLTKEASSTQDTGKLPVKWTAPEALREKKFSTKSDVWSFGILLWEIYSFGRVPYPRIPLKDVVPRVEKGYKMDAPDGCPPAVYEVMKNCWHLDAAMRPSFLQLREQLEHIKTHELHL

[5] = molecular target: Death-associated protein kinase 1 (Homo sapiens) (UniProt P53355); test: Inhibition of DAPK1 (unknown origin) at 0.2 uM incubated for 40 mins by radiometric kinase assay relative to control
Sequence of Death-associated protein kinase 1 (Homo sapiens) (P53355 whole entry, looked up): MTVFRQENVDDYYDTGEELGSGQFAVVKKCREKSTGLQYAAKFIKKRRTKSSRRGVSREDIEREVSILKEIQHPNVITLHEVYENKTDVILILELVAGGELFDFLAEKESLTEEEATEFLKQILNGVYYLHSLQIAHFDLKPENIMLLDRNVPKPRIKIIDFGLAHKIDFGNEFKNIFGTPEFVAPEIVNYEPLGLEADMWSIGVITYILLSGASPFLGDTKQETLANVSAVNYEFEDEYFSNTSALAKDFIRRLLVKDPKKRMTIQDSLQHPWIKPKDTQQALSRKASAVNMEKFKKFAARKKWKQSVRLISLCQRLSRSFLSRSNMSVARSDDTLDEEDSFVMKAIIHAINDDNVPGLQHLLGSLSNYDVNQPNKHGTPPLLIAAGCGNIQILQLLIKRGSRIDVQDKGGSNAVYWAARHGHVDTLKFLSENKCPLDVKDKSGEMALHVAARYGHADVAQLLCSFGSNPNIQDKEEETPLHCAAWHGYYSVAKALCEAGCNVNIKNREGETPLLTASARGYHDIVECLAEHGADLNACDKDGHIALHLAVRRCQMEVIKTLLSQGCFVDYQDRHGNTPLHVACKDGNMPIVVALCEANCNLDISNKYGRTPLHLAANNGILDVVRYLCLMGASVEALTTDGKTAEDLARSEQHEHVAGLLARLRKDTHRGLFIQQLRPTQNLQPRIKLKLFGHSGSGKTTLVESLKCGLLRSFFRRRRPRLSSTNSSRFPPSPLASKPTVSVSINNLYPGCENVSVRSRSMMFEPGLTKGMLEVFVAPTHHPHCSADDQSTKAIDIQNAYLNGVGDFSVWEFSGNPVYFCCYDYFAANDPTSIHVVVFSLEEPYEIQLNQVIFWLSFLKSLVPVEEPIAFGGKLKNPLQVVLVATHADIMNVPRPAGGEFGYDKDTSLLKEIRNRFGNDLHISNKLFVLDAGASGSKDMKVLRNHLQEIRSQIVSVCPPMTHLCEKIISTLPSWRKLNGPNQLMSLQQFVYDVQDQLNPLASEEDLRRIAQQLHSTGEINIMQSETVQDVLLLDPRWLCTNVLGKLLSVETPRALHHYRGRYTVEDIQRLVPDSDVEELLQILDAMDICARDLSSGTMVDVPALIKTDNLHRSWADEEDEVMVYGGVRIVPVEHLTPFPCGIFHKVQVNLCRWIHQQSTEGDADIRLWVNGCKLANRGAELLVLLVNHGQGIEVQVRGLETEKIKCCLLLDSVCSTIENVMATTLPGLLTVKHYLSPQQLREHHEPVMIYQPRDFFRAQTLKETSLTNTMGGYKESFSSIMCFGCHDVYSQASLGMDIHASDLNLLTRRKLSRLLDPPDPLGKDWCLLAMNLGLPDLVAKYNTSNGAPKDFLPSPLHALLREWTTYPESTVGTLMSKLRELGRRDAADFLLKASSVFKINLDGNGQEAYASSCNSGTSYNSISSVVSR

[6] = molecular target: Vascular endothelial growth factor receptor 1 (Homo sapiens) (UniProt P17948); test: Inhibition of FLT1 (unknown origin) at 0.2 uM incubated for 40 mins by radiometric kinase assay relative to control
[7] = molecular target: Tyrosine-protein kinase ITK/TSK (Homo sapiens) (UniProt Q08881); test: Inhibition of ITK (unknown origin) at 0.2 uM incubated for 40 mins by radiometric kinase assay relative to control
Sequence of Tyrosine-protein kinase ITK/TSK (Homo sapiens) (Q08881 whole entry): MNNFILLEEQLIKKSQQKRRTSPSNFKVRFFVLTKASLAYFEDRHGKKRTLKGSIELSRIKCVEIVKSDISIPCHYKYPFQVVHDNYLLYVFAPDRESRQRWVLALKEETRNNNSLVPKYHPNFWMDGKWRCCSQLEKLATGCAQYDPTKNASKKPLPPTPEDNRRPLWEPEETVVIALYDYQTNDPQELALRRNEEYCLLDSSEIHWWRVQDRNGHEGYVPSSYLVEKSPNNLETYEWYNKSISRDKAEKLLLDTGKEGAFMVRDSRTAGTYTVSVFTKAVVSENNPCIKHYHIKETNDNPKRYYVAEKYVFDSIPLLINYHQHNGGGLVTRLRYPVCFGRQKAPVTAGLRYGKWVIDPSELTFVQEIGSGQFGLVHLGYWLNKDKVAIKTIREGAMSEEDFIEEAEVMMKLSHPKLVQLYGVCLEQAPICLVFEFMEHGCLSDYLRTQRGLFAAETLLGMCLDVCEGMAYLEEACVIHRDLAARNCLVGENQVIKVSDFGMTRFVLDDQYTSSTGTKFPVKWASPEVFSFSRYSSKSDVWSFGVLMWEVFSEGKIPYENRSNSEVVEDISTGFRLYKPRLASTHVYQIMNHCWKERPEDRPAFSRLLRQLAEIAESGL

[8] = molecular target: Serine/threonine-protein kinase pim-1 (Homo sapiens) (UniProt P11309); test: Inhibition of PIM-1 (unknown origin) at 0.2 uM incubated for 40 mins by radiometric kinase assay relative to control
Sequence of Serine/threonine-protein kinase pim-1 (Homo sapiens) (P11309 whole entry, looked up): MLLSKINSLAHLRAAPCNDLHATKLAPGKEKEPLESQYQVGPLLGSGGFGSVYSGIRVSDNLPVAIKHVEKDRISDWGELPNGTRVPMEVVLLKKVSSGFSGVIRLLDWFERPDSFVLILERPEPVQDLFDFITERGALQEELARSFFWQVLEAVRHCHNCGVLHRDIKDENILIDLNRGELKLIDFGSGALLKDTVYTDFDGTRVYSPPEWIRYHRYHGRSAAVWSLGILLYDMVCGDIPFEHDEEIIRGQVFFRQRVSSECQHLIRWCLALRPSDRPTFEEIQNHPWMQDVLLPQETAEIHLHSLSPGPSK

[9] = molecular target: Tyrosine-protein kinase receptor TYRO3 (Homo sapiens) (UniProt Q06418); test: Inhibition of RSE (unknown origin) at 0.2 uM incubated for 40 mins by radiometric kinase assay relative to control
[10] = molecular target: Mitogen-activated protein kinase 13 (Homo sapiens) (UniProt O15264); test: Inhibition of SAPK4 (unknown origin) at 0.2 uM incubated for 40 mins by radiometric kinase assay relative to control
Sequence of Mitogen-activated protein kinase 13 (Homo sapiens) (O15264 whole entry): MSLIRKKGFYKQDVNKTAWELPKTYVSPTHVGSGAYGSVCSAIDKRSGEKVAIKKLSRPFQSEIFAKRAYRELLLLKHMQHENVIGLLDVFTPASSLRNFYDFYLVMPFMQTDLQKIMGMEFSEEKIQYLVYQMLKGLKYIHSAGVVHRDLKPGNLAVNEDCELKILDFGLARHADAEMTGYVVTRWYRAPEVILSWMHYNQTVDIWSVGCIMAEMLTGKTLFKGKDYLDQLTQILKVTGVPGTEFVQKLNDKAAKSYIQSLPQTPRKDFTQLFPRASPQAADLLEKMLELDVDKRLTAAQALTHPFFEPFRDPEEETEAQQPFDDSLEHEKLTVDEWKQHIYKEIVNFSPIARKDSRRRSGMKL

[11] = molecular target: Serine/threonine-protein kinase PLK2 (Homo sapiens) (UniProt Q9NYY3); test: Inhibition of SNK (unknown origin) at 0.2 uM incubated for 40 mins by radiometric kinase assay relative to control
Sequence of Serine/threonine-protein kinase PLK2 (Homo sapiens) (Q9NYY3 whole entry, looked up): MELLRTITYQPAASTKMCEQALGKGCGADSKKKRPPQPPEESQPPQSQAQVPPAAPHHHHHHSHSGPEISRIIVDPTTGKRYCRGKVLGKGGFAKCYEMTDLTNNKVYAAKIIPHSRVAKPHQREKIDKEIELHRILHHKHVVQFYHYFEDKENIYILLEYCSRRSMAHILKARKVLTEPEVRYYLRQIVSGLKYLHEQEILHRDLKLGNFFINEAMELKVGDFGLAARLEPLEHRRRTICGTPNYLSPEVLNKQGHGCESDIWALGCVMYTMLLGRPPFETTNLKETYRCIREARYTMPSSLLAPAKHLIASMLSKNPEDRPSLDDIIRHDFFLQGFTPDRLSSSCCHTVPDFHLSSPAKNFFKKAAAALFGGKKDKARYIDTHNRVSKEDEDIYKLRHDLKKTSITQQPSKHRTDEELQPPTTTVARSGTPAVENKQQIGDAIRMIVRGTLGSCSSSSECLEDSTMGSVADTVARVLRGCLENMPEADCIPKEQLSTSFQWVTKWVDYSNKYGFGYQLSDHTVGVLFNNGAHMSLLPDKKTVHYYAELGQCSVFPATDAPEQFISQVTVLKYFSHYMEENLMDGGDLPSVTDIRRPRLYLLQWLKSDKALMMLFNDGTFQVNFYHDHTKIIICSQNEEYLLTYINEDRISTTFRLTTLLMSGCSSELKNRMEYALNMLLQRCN

[12] = molecular target: Tyrosine-protein kinase SYK (Homo sapiens) (UniProt P43405); test: Inhibition of SYK (unknown origin) at 0.2 uM incubated for 40 mins by radiometric kinase assay relative to control
MV4-11 [13] = test: Potency index, ratio of spebrutinib IC50 to test compound IC50 for antiproliferative activity against human MV4-11 cells; type: functional
K562 [14] = test: Potency index, ratio of spebrutinib IC50 to test compound IC50 for antiproliferative activity against human K562 cells; type: functional
MV4-11 [15] = test: Potency index, ratio of ibrutinib IC50 to test compound IC50 for antiproliferative activity against human MV4-11 cells; type: functional
K562 [16] = test: Potency index, ratio of ibrutinib IC50 to test compound IC50 for antiproliferative activity against human K562 cells; type: functional
MV4-11 [17] = test: Potency index, ratio of sorafenib IC50 to test compound IC50 for antiproliferative activity against human MV4-11 cells; type: functional
MOLT-4 = test: Potency index, ratio of sorafenib IC50 to test compound IC50 for antiproliferative activity against human MOLT-4 cells; type: functional
[18] = molecular target: T1, Tyrosine-protein kinase BTK; test: Inhibition of BTK phosphorylation in human JeKo-1 cells incubated for 72 hrs by Western blot analysis; type: cell-based; details: dose 30-750 nM
JeKo-1 [19] = test: Induction of apoptosis in human JeKo-1 cells assessed as late apoptotic cells at 30 nM incubated for 72 hrs by Annexin VFITC/PI staining based flow cytometry analysis (reference value: 1.42%); type: functional
JeKo-1 [20] = test: Induction of apoptosis in human JeKo-1 cells assessed as necrotic cells at 150 nM incubated for 72 hrs by Annexin VFITC/PI staining based flow cytometry analysis (reference value: 0.67%); type: functional
JeKo-1 [21] = test: Induction of apoptosis in human JeKo-1 cells assessed as early apoptotic cells at 750 nM incubated for 72 hrs by Annexin VFITC/PI staining based flow cytometry analysis (reference value: 3.10%); type: functional
JeKo-1 [22] = test: Induction of apoptosis in human JeKo-1 cells assessed as late apoptotic cells at 750 nM incubated for 72 hrs by Annexin VFITC/PI staining based flow cytometry analysis (reference value: 1.42%); type: functional
JeKo-1 [23] = test: Induction of apoptosis in human JeKo-1 cells assessed as downregulation of Bcl-2 protein expression at 30 to 750 nM incubated for 72 hrs by Western blot analysis; type: functional, cell-based; details: dose 30-750 nM
[24] = Metabolic stability in human liver microsome assessed as half life preincubated with compound for 5 mins followed by NADPH addition and measured upto 60 mins by LC-MS/MS analysis; type: ADME; details: liver microsomes, time < 65 min
[25] = Acute toxicity in ICR mouse assessed as animal survival at 375 mg/kg, ip measured for 2 weeks; type: organism-based; details: in vivo
[26] = Acute toxicity in ICR mouse assessed as animal survival at 300 mg/kg, ip measured for 2 weeks; type: organism-based; details: in vivo
[27] = Acute toxicity in ip dosed ICR mouse assessed as change in routine blood analysis at 200 mg/kg, ip measured for 2 weeks; type: organism-based; details: in vivo, 336 h
[28] = Acute toxicity in ip dosed ICR mouse assessed as effect on RBC level at 200 mg/kg, ip measured for 2 weeks; type: organism-based, Erythrocyte; details: in vivo, 336 h
JeKo-1 [29] = test: Antitumor activity against human JeKo-1 cells xenografted in ip dosed NOD/SCID mouse assessed as suppression of tumor growth measured for 16 days; type: functional, organism-based; details: dose 25-50 mg/kg, time 16.0 day
[30] = Toxicity in NOD/SCID mouse xenografted with human JeKo-1 cells assessed as effect on body weight at 25 to 50 mg/kg, ip measured for 16 days; type: organism-based; details: in vivo, 384 h, dose 25-50 mg/kg, time 16 day
[31] = Toxicity in NOD/SCID mouse xenografted with human JeKo-1 cells assessed as abnormal activity at 25 to 50 mg/kg, ip measured for 16 days; type: organism-based; details: in vivo, 384 h, dose 25-50 mg/kg, time 16 day
JeKo-1 [32] = test: Antitumor activity against human JeKo-1 cells xenografted NOD/SCID mouse assessed as reduction in tumor weight at 25 mg/kg, ip measured for 16 days; type: functional; details: time 16 day
[33] = Toxicity in NOD/SCID mouse xenografted with human MV4-11 cells assessed as effect on body weight loss at 10 to 20 mg/kg, ip administered once daily for 21 days; type: organism-based; details: in vivo, 504 h, dose 10-20 mg/kg, time 21 day
MV4-11 [34] = test: Antitumor activity against human MV4-11 cells xenografted NOD/SCID mouse assessed as increase in tumor necrotic cells at 10 mg/kg, ip administered once daily for 21 days by H and E staining analysis; type: functional, organism-based; details: time 21.0 day
MV4-11 [35] = test: Antitumor activity against human MV4-11 cells xenografted NOD/SCID mouse assessed as increase in tumor necrotic cells at 20 mg/kg, ip administered once daily for 21 days by H and E staining analysis; type: functional, organism-based; details: time 21.0 day
in vitro = details: human, Caco-2
Description: Apparent permeability across apical to basolateral side in human Caco-2 cells incubated for 120 mins by LC-MS/MS analysis

T1 sequence (Q06187 whole entry): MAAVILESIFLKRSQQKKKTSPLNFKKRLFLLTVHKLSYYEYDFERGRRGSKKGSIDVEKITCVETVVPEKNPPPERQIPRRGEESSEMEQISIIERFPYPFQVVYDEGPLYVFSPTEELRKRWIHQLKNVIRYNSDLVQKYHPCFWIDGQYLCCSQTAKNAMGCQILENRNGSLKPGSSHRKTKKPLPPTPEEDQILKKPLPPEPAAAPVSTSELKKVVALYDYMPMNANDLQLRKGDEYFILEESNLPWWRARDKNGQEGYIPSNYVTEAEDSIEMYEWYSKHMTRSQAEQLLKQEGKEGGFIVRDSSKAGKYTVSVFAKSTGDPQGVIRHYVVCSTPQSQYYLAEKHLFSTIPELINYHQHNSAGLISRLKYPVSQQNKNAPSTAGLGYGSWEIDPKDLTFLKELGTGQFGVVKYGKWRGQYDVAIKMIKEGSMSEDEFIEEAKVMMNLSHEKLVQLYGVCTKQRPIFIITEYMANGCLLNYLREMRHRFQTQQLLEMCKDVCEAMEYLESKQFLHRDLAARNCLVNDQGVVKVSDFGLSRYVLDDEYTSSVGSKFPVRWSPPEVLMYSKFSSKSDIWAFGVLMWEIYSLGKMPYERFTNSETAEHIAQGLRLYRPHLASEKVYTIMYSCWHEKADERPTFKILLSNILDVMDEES

`CN1CCN(c2ccc(Nc3ncc(F)c(Nc4ccccc4C(=O)NN)n3)cc2)CC1` showed an IC50 [1] of 47 nM, an inhibition [2] of 79% and an inhibition [3] of 23%. It also gave an inhibition [4] of 6%, an inhibition [5] of -1% and an inhibition [6] of 100%. For the same compound, the inhibition [7] was 65%, the inhibition [8] was 28% and the inhibition [9] was 24%. It also gave an inhibition [10] of 3%, an inhibition [11] of 43% and an inhibition [12] of 4%. For the same compound, the “Ratio IC50” value (MV4-11 [13]) was 8, the “Ratio IC50” value (K562 [14]) was 8 and the “Ratio IC50” value (MV4-11 [15]) was 6. The “Ratio IC50” value (K562 [16]) was 6, the “Ratio IC50” value (MV4-11 [17]) was 1.3 and the “Ratio IC50” value (MOLT-4) was 1.3. The inhibition [18] was “Dose-Dependent Effect”, the Activity (JeKo-1 [19]) was 0.18% and the Activity (JeKo-1 [20]) was 0.37%. For the same compound, the Activity (JeKo-1 [21]) was 37.89%, the Activity (JeKo-1 [22]) was 0.47% and the Activity (JeKo-1 [23]) was “Active”. It also gave a half-life [24] of 41.5 min, a survival at 336 h [25] of 40% and a survival at 336 h [26] of 60%. The Activity [27] was “Non-Toxic”, the Activity [28] was “Toxic” and the Activity (JeKo-1 [29]) was “Dose-Dependent Effect”. For the same compound, the Activity [30] was “Non-Toxic”, the Activity [31] was “Non-Toxic” and the Activity (JeKo-1 [32]) was 0.31 g. For the same compound, the Activity [33] was “Non-Toxic”, the Activity (MV4-11 [34]) was “Active” and the Activity (MV4-11 [35]) was “Active”. It also gave a Papp A→B at 2 h (in vitro) of 5.11 ×10⁻⁶ cm/s.
